{"source": "PubChem BioAssay AID1259411", "about": "(Chemical Carcinogenesis Research Information System (CCRIS), 2018)", "test_system": "rodent carcinogenicity bioassays, tumor incidence", "assay": "CCRIS carcinogenicity studies", "method_in_brief": "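NCI-built, expert-reviewed records of carcinogenicity and related test outcomes (mutagenicity, tumor promotion/inhibition) compiled from published and report sources, historical span 1985-2011, not updated.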", "note": "Calls of active or inactive are those of the source. The rule behind the calls is not given here."}
{"compound": "O=CCC=O", "values": [{"measurement": "carcinogen call", "setting": "Species: MOUSE, Strain/Sex: B6C3F1/FEMALE, Route: GAVAGE, Dose: 0, 60, 120 MG/KG IN DISTILLED WATER 5D/WK FOR 102 WK (STUDY DURATION: 105 WK), Dose: 0, 60, 120 MG/KG IN DISTILLED WATER 5D/WK FOR 102 WK (STUDY DURATION: 105 WK)", "value": "inactive; negative"}, {"measurement": "carcinogen call", "setting": "Species: MOUSE, Strain/Sex: B6C3F1/FEMALE, Route: INTRAPERITONEAL, Dose: 0, 1500 NMOL TOTAL DOSE, 1/3 AND 2/3 OF THE TOTAL DOSE ADMINISTERED AT 8 AND 15 DAYS OF AGE RESPECTIVELY, ANIMALS TERMIN", "value": "inactive; negative"}, {"measurement": "carcinogen call", "setting": "Species: MOUSE, Strain/Sex: B6C3F1/FEMALE, Route: INTRAPERITONEAL, Dose: 0, 3000 NMOL TOTAL DOSE, 1/3 AND 2/3 OF THE TOTAL DOSE ADMINISTERED AT 8 AND 15 DAYS OF AGE RESPECTIVELY, ANIMALS TERMIN", "value": "inactive; negative"}, {"measurement": "carcinogen call", "setting": "Species: MOUSE, Strain/Sex: B6C3F1/MALE, Route: GAVAGE, Dose: 0, 60, 120 MG/KG IN DISTILLED WATER 5D/WK FOR 102 WK (STUDY DURATION: 104 WK), Dose: 0, 60, 120 MG/KG IN DISTILLED WATER 5D/WK FOR 102 WK (STUDY DURATION: 104 WK)", "value": "inactive; negative"}, {"measurement": "carcinogen call", "setting": "Species: MOUSE, Strain/Sex: B6C3F1/MALE, Route: INTRAPERITONEAL, Dose: 0, 1500 NMOL TOTAL DOSE, 1/3 AND 2/3 OF THE TOTAL DOSE ADMINISTERED AT 8 AND 15 DAYS OF AGE RESPECTIVELY, ANIMALS TERMIN", "value": "inactive; negative"}, {"measurement": "carcinogen call", "setting": "Species: MOUSE, Strain/Sex: B6C3F1/MALE, Route: INTRAPERITONEAL, Dose: 0, 3000 NMOL TOTAL DOSE, 1/3 AND 2/3 OF THE TOTAL DOSE ADMINISTERED AT 8 AND 15 DAYS OF AGE RESPECTIVELY, ANIMALS TERMIN", "value": "inactive; negative"}, {"measurement": "carcinogen call", "setting": "Species: RAT, Strain/Sex: F344/FEMALE, Route: GAVAGE, Dose: 0, 50, 100 MG/KG IN DISTILLED WATER 5D/WK FOR 102 WK (STUDY DURATION: 105 WK), Dose: 0, 50, 100 MG/KG IN DISTILLED WATER 5D/WK FOR 102 WK (STUDY DURATION: 105 WK), Tumor Site: Type of Lesion: THYROID GLAND: FOLLICULAR CELL ADENOMA, THYROID GLAND: FOLLICULAR CELL ADENOMA OR CARCINOMA", "value": "active; positive"}, {"measurement": "carcinogen call", "setting": "Species: RAT, Strain/Sex: F344/MALE, Route: GAVAGE, Dose: 0, 50, 100 MG/KG IN DISTILLED WATER 5D/WK FOR 102 WK (STUDY DURATION: 104 WK), Dose: 0, 50, 100 MG/KG IN DISTILLED WATER 5D/WK FOR 102 WK (STUDY DURATION: 104 WK), Tumor Site: Type of Lesion: THYROID GLAND: FOLLICULAR CELL ADENOMA OR CARCINOMA, PANCREATIC ISLETS: ISLET CELL ADENOMA, PANCREATIC ISLETS: ISLET CEL, Tumor Site: Type of Lesion: THYROID GLAND: FOLLICULAR CELL ADENOMA OR CARCINOMA, PANCREATIC ISLETS: ISLET CELL ADENOMA, PANCREATIC ISLETS: ISLET CEL", "value": "active; positive"}]}
{"compound": "O=C(O)CN(CC(=O)O)CC(=O)O", "values": [{"measurement": "carcinogen call", "setting": "Species: MOUSE, Strain/Sex: B6C3F1/FEMALE, Route: ORAL, Dose: 0, 2500, 5000 PPM IN DIET (STUDY DURATION: 18 MO), Dose: 0, 2500, 5000 PPM IN DIET (STUDY DURATION: 18 MO)", "value": "inactive; negative"}, {"measurement": "carcinogen call", "setting": "Species: MOUSE, Strain/Sex: B6C3F1/FEMALE, Route: ORAL, Dose: 0, 7500, 15000 PPM IN DIET, Dose: 0, 7500, 15000 PPM IN DIET", "value": "inactive; negative"}, {"measurement": "carcinogen call", "setting": "Species: MOUSE, Strain/Sex: B6C3F1/MALE, Route: ORAL, Dose: 0, 2500, 5000 PPM IN DIET (STUDY DURATION: 18 MO), Dose: 0, 2500, 5000 PPM IN DIET (STUDY DURATION: 18 MO)", "value": "inactive; negative"}, {"measurement": "carcinogen call", "setting": "Species: MOUSE, Strain/Sex: B6C3F1/MALE, Route: ORAL, Dose: 0, 7500, 15000 PPM IN DIET, Dose: 0, 7500, 15000 PPM IN DIET, Tumor Site: Type of Lesion: KIDNEY: MALIGNANT TUMOR", "value": "active; positive"}, {"measurement": "carcinogen call", "setting": "Species: RAT, Strain/Sex: F344/FEMALE, Route: ORAL, Dose: 0, 200, 2000, 20000 PPM IN DIET (STUDY DURATION: 24 MO), Dose: 0, 200, 2000, 20000 PPM IN DIET (STUDY DURATION: 24 MO), Tumor Site: Type of Lesion: URINARY BLADDER: TUMOR, URETER: TUMOR, KIDNEY: TUMOR, Tumor Site: Type of Lesion: URINARY BLADDER: TUMOR, URETER: TUMOR, KIDNEY: TUMOR", "value": "active; positive"}, {"measurement": "carcinogen call", "setting": "Species: RAT, Strain/Sex: F344/FEMALE, Route: ORAL, Dose: 0, 7500, 1500 PPM IN DIET (STUDY DURATION: 18 MO), Dose: 0, 7500, 1500 PPM IN DIET (STUDY DURATION: 18 MO), Tumor Site: Type of Lesion: URINARY BLADDER: PAPILLOMA OR SQUAMOUS CELL CARCINOMA OR TRANSITIONAL CELL CARCINOMA", "value": "equivocal"}, {"measurement": "carcinogen call", "setting": "Species: RAT, Strain/Sex: F344/FEMALE, Route: ORAL, Dose: 0, 7500, 15000 PPM IN DIET, Dose: 0, 7500, 15000 PPM IN DIET, Tumor Site: Type of Lesion: URINARY BLADDER: MALIGNANT TUMOR", "value": "active; positive"}, {"measurement": "carcinogen call", "setting": "Species: RAT, Strain/Sex: F344/MALE, Route: ORAL, Dose: 0, 200, 2000, 20000 PPM IN DIET (STUDY DURATION: 24 MO), Dose: 0, 200, 2000, 20000 PPM IN DIET (STUDY DURATION: 24 MO), Tumor Site: Type of Lesion: KIDNEY: TUMOR, URETER: TUMOR", "value": "active; positive"}, {"measurement": "carcinogen call", "setting": "Species: RAT, Strain/Sex: F344/MALE, Route: ORAL, Dose: 0, 7500, 15000 PPM IN DIET (STUDY DURATION: 18 MO), Dose: 0, 7500, 15000 PPM IN DIET (STUDY DURATION: 18 MO), Tumor Site: Type of Lesion: KIDNEY: TUBULAR CELL ADENOCARCINOMA OR SARCOMA METASTATIC OR HAMARTOMA, RENAL PELVIS: TRANSIT CELL PAPILLOMA", "value": "equivocal"}, {"measurement": "carcinogen call", "setting": "Species: RAT, Strain/Sex: F344/MALE, Route: ORAL, Dose: 0, 7500, 15000 PPM IN DIET, Dose: 0, 7500, 15000 PPM IN DIET", "value": "inactive; negative"}, {"measurement": "carcinogen call", "setting": "Species: RAT, Strain/Sex: SPRAGUE-DAWLEY/MALE, Route: ORAL, Dose: 0, 1000 PPM (PURITY NOT REPORTED) IN DRINKING WATER FOR 2 YR, Tumor Site: Type of Lesion: KIDNEY: TUBULAR CELL ADENOMA OR ADENOCARCINOMA", "value": "active; positive"}]}
{"compound": "Clc1ccc(-c2ccc(Cl)c(Cl)c2Cl)c(Cl)c1Cl", "values": [{"measurement": "carcinogen call", "setting": "Species: RAT, Strain/Sex: SHERMAN/FEMALE, Route: ORAL, Dose: 100 MG/KG IN DIET, Tumor Site: Type of Lesion: LIVER: NEOPLASTIC NODULE, HEPATOCELLULAR CARCINOMA", "value": "active; positive"}, {"measurement": "carcinogen call", "setting": "Species: RAT, Strain/Sex: SPRAGUE-DAWLEY/FEMALE, Route: ORAL, Dose: 0, 25, 50, 100 PPM IN DIET FOR THE DURATION OF STUDY (STUDY DURATION: 24 MO), Dose: 0, 25, 50, 100 PPM IN DIET FOR THE DURATION OF STUDY (STUDY DURATION: 24 MO), Tumor Site: Type of Lesion: LIVER: TUMOR", "value": "active; positive"}, {"measurement": "carcinogen call", "setting": "Species: RAT, Strain/Sex: SPRAGUE-DAWLEY/FEMALE, Route: ORAL, Dose: 0, 100 PPM IN DIET FOR 16 MO AND 50 PPM FOR AN ADDITIONAL 8 MO FOLLOWED BY CONTROL DIET FOR 5 MO (STUDY DURATION: 29 MO), Tumor Site: Type of Lesion: LIVER: TRABECULAR CARCINOMA, ADENOCARCINOMA", "value": "active; positive"}, {"measurement": "carcinogen call", "setting": "Species: RAT, Strain/Sex: SPRAGUE-DAWLEY/MALE, Route: ORAL, Dose: 0, 25, 50, 100 PPM IN DIET FOR THE DURATION OF STUDY (STUDY DURATION: 24 MO), Dose: 0, 25, 50, 100 PPM IN DIET FOR THE DURATION OF STUDY (STUDY DURATION: 24 MO), Tumor Site: Type of Lesion: THYROID GLAND: ADENOMA OR CARCINOMA, LIVER: TUMOR", "value": "active; positive"}, {"measurement": "carcinogen call", "setting": "Species: RAT, Strain/Sex: SPRAGUE-DAWLEY/MALE, Route: ORAL, Dose: 0, 100 PPM IN DIET FOR 16 MO AND 50 PPM FOR AN ADDITIONAL 8 MO FOLLOWED BY CONTROL DIET FOR 5 MO (STUDY DURATION: 29 MO)", "value": "inactive; negative"}, {"measurement": "carcinogen call", "setting": "Species: RAT, Strain/Sex: WISTAR/MALE, Route: ORAL, Dose: 0, 50, 100 PPM IN A 10% PROTEIN DIET FOR 4 MO (STUDY DURATION: 4 MO), Dose: 0, 50, 100 PPM IN A 10% PROTEIN DIET FOR 4 MO (STUDY DURATION: 4 MO), Tumor Site: Type of Lesion: THYMUS: NEOPLASM, SPLEEN: NEOPLASM", "value": "active; positive"}]}
{"compound": "CCOCCc1c(-c2ccccc2)nc(N)n2ncnc12", "values": [{"measurement": "carcinogen call", "setting": "Species: RAT, Strain/Sex: STRAIN-CD/FEMALE, Route: ORAL, Dose: 0, 50, 150, 450 MG/KG/D IN DIET FOR 97 WK (STUDY DURATION: 105 WK), Dose: 0, 50, 150, 450 MG/KG/D IN DIET FOR 97 WK (STUDY DURATION: 105 WK), Tumor Site: Type of Lesion: LIVER: ADENOMA OR CARCINOMA, MAMMARY GLAND: ADENOMA OR CARCINOMA, THYROID GLAND: ADENOMA, Tumor Site: Type of Lesion: LIVER: ADENOMA OR CARCINOMA, MAMMARY GLAND: ADENOMA OR CARCINOMA, THYROID GLAND: ADENOMA", "value": "active; positive"}, {"measurement": "carcinogen call", "setting": "Species: RAT, Strain/Sex: STRAIN-CD/MALE, Route: ORAL, Dose: 0, 50, 150, 450 MG/KG/D IN DIET FOR 97 WK (STUDY DURATION: 105 WK), Dose: 0, 50, 150, 450 MG/KG/D IN DIET FOR 97 WK (STUDY DURATION: 105 WK), Tumor Site: Type of Lesion: LIVER: ADENOMA OR CARCINOMA, THYROID GLAND: ADENOMA OR CARCINOMA", "value": "active; positive"}]}
